# Assay results published in patent publication US12043602B2, “Fendiline derivatives” (The Board of Regents of the University of Texas System, priority 2019, dated 2024).
# Entries after “also recorded” stand apart in the source; their conditions may differ.
# Assays:
# MiaPaCa-2 tumors = assay: In vivo tumor growth assay (xenograft); parameters: species or system nu/nu mice; settings: for growth of MiaPaCa-2 xenografts: intraperitoneally, once daily 5 days on / 2 days off, doses 1-12.5 mg/kg; for minimum effective dose on tumor growth relative to fendiline: MiaPaCa2 xenografts in nude mice
# Protocol: In Vivo Tumor Growth Assay. All animal studies were performed under an Institutional Animal Care and Use Committee (IACUC) approved animal protocol (AWC-15-0101), in accordance with the National Institutes of Health Guide for the Care and Use of Laboratory Animals. Early passage MiaPaCa-2 cells were harvested, and 2×10^6 cells were implanted into the right flanks of female nu/nu mice. The animals were randomized into control and treated groups (10 mice per group). Tumor volume (V) was measured with an external caliper every 3-4 days and it was calculated as V=0.52 (length×width2). Compound treatment was initiated when the tumor sizes reached 100 mm3. Compounds (12.5 mg/kg) were injected daily intraperitoneally for 5 days, with 2 days of no treatment in between. All treatments were continued until any of the subcutaneous tumors reached 1500 mm3 in volume, when all the animals were sacrificed, and the tumors removed.
# Early passage BxPC-3 or MIAPaCa-2 cells were harvested, and 2-3X106 cells were implanted into the right flanks of nu/nu mice. The animals were randomized into control and treated groups (10 mice per group). Tumor volume (V) was measured with an external caliper every 3-4 days and it was calculated as V=0.52 (length×width2). Drug treatment was initiated 4 days after tumor implantation. Drugs were injected daily intraperitoneally (at doses indicated) for 5 days, with 2 days of no treatment in between. All treatments were continued until any of the subcutaneous tumors reached 1500 mm3 in volume or for 6 weeks (whichever was first), when all the animals were sacrificed and the tumors removed.
# Next the effect of the selected PMLIs on the growth of oncogenic KRAS expressing MiaPaCa-2 cells implanted subcutaneously into the flanks of nu/nu immunosuppressed mice was determined. […] The animals were randomized into control and PMLI-treated groups (10 mice per group). Treatment was initiated when the tumors reached a mean volume of 100 mm^3. PMLIs were tested at 12.5, 7.5, 5, 2.5 and 1 mg/kg doses, administered once daily intraperitoneally for 5 days, with 2 days of no treatment in between for the duration of the experiment. […] There was no observed toxicity detected in any of the compound-treated groups during the experiment and, accordingly, there was no significant difference in the body weight of the animals in the different groups.
# [1] = system: ESS-1 (WT) endometrial tumor cells; assay: CyQUANT proliferation assay; assay type: cell-based; parameters: key: NE—Not efficacious; settings: 72 h
# In short: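 Live cell number was estimated by CyQUANT fluorescence at the end of a 72 h drug treatment begun one day after plating. Cultures were maintained in 10% FBS-supplemented RPMI 1640 with antibiotics under 5% CO2; controls received 0.1% DMSO.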
# SMPD1-GFP (ASM) = SMPD1-GFP (ASM) (Homo sapiens (Human), UniProt P17405); assay: Western blot of SMPD1-GFP levels; assay type: cell-based; settings: 5 μM compounds for 48 h
# Protocol: FIG. 6A-C. (A) Dose response curves quantifying the extent of KRASG12V and LactC2 mislocalization after 48 h treatment with compounds. Mislocalization was quantified using Manders coefficients as the fraction of mCherry-CAAX co-localizing with mGFP-KRASG12V or GFP-LactC2. (B) ASM activity in cell stably expressing GFP-tagged SMPD1 treated with DMSO or 5 μM compound for 48 h. (C) Representative western blots and quantitation of SMPD1-GFP levels in cells treated with 5 μM compounds for 48 h. (D) Representative confocal images of MDCK cells stably co-expressing mGFP-KRASG12V and mCherry-CAAX treated with 10 μM compound 6 or 1 μM of compounds 12f (NY0244), 12h (NY0331) or 22 (NY0335) for 48 h (-ASM), then incubated with recombinant ASM in the continued presence of drugs for a further 60 min (+ASM). Mislocalization was quantified using Manders coefficients as the fraction of mCherry-CAAX co-localizing with mGFP-KRASG12V.
# Western Blotting. […] Signals were detected by enhanced chemiluminescence (Thermo Fisher Scientific) and imaged using a FluorChemQ imager (Alpha Inotech). Quantification of intensities was performed using FluorChemQ software.
Structure (SMILES),"MiaPaCa2 xenograft size (MiaPaCa-2 tumors; 12.5 mg/kg intraperitoneally, days 28, 32 and 35)",growth of MiaPaCa-2 xenografts (MiaPaCa-2 tumors),IC50 proliferation ESS-1 (WT) [1],cellular levels of ASM (SMPD1-GFP) (SMPD1-GFP (ASM)),minimum effective dose on tumor growth relative to fendiline (MiaPaCa-2 tumors),tumor growth at 1 mg/kg (MiaPaCa-2 tumors; 1 mg/kg intraperitoneally),growth of MiaPaCa-2 xenografts (MiaPaCa-2 tumors; listed as 12h),growth of MiaPaCa-2 xenografts (MiaPaCa-2 tumors; listed as 22)
CC(NCCC(c1ccccc1)c1ccccc1)c1ccccc1 (stereo not drawn) [Fendiline],significantly smaller,inhibits the growth,NE,,,,,
"COc1ccc([C@@H](C)N(CC=C(c2ccccc2)c2ccccc2)CCN2CCN(C)CC2)cc1 [NY0244, (R)-N-(1-(4-methoxyphenyl)ethyl)-N-(2-(4-methylpiperazin-1-yl)ethyl)-3,3-diphenylprop-2-en-1-amine]",,,NE,reduced the levels of ASM,more potent than fendiline,,,
"COc1ccc([C@@H](C)N(CC=C(c2ccccc2)c2ccccc2)CCN2CCCC2)cc1 [NY0331, (R)-N-(1-(4-methoxyphenyl)ethyl)-3,3-diphenyl-N-(2-(pyrrolidin-1-yl)ethyl)prop-2-en-1-amine]",,,,reduced the levels of ASM,more potent than fendiline,significantly inhibited tumor growth,suppressed; also recorded: strikingly decreased the rate of growth,
"COc1ccc([C@@H](C)N(CC=C(c2ccccc2)c2ccccc2)CCCN2CCN(C)CC2)cc1 [NY0335, (R)-N-(1-(4-methoxyphenyl)ethyl)-N-(3-(4-methylpiperazin-1-yl)propyl)-3,3-diphenylprop-2-en-1-amine]",,,NE,,,,,suppressed; also recorded: strikingly decreased the rate of growth
